One assay deals with VLP of norovirus GII. 4. In words: Binding of AF488-labeled VLPs of norovirus GII.4 to the surface of 2fp-fucose-treated 2D organoid. The class given is cell-based, human norovirus. To be noted: 2fp-fucose 0, 8, 40, 200, 1,000 μM, 4 treatment days. As for the experimental part: In the Example, a nucleotide sequence (AB447456) encoding a structural protein domain of norovirus GII. 4 was incorporated into a baculovirus, and the sequence was expressed in insect cells (SF9 cells). The expression product was used in the Example.
Separately, VLPs of norovirus GII. 4 were labeled with AF488 (Alexa Fluor 488; green phosphor) and purified. The thus-prepared labeled VLPs were added to the 2fp-fucose-treated 2D organoid, and a state of binding of VLPs to the surface of the 2fp-fucose-treated 2D organoid was observed. Similar to the case of UEA-1, the 2fp-fucose concentration in the treatment was 0, 8, 40, 200, and 1,00 0 μM (for 4 treatment days). […] When the 2fp-fucose concentration exceeded 40 μM, definite reduction in VLP adsorption on the surface of 2D organoid was observed (FIG. 3(b)). FIG. 3(b) includes monochrome photographic images.

Assay [1] deals with human norovirus GII.3 (TCH2004 strain). Briefly: Human norovirus proliferation inhibition in 2D organoid after 2fp-fucose treatment, GII.3 strain. The class given is cell-based. The note with it: 3 days treatment before infection, days 3 and 6 after infection. As to the method:
(§1) Feces of a human norovirus-infected patent contains a large amount of infectious human norovirus. Thus, the feces of a human norovirus-infected patient is suspended in distilled water or the like to a final concentration of about 10%, to thereby prepare a “10% feces suspension.” The 10% feces suspension is about 10-fold diluted with an ENRA medium. The diluted suspension is added to each of the aforementioned wells having the 2D organoid (5 μL/well) and subjected to incubation for about 3 hours, to thereby proliferate human norovirus. As a result of verification, it has been confirmed that human norovirus proliferates to about 100,000 times the initial count through the culture system employing the 2D organoid.
In the Example, there were tested strains of human norovirus obtained from feces of human norovirus infection patients through the aforementioned procedure and stocked before the test. Specifically, three strains belonging to the genetic group 2 (GII) which accounts for 80 to 90% of the infected patients were selected as test targets. The isolated strain lineages included in GII (FIG. 1) were GII. 6 belonging to “Lineage 1,” GII. […]
The effect of 2fp-fucose treatment on proliferation of human norovirus was investigated for each lineage of norovirus. […] 4, and the viral proliferation amount was determined on days 3 and 6 after infection (FIG. 4).

Assay [2] concerns human norovirus GII.4 (K2017 strain). In words: Human norovirus proliferation inhibition in 2D organoid after agent pre-treatment, GII.4 strain. The class given is cell-based. As for the experimental part:
as §1
In the Example, there were tested strains of human norovirus obtained from feces of human norovirus infection patients through the aforementioned procedure and stocked before the test. Specifically, three strains belonging to the genetic group 2 (GII) which accounts for 80 to 90% of the infected patients were selected as test targets. The isolated strain lineages included in GII (FIG. 1) were GII. 6 belonging to “Lineage 1,” GII. 3 belonging to “Lineage 2,” and GII.4 belonging to “Lineage 3” (GII. 6: K2017 strain, GII.3: TCH2004 strain, and GII. 4: K2017 strain).
The effect of 2fp-fucose treatment on proliferation of human norovirus was investigated for each lineage of norovirus. Specifically, after the 2fp-fucose treatment for 3 days, the 2D organoid was infected with each of the aforementioned norovirus strains GII.6, GII. 3, and GII. 4, and the viral proliferation amount was determined on days 3 and 6 after infection (FIG. 4).
Next, there was investigated the effect of the period of time (the number of days) of the 2fp-fucose treatment performed in advance on the anti-human norovirus action of the fucose analog. Specifically, the strain GII. 4 was treated with 2fp-fucose (several concentrations) for 1 to 4 days. […] However, in the group of 3-day treatment, the proliferation inhibition effect was observed by the 200 μM treatment with a certain range of variation in effectiveness. In the group of 4-day treatment, the proliferation inhibition effect was initially observed by 8 μM treatment, and the effect increased in a concentration-dependent manner to a 2fp-fucose concentration of 200 μM. […] Thus, the highest proliferation inhibition effect was obtained in the 2D organoid system through a 200 μM treatment for 3 to 4 days. The test was repeatedly performed three times. Error bars denote SEMs.
The 2D organoid was treated with an agent for 3 days. The tested agents were (a) 2fp-fucose (200 μM), (b) Sofosbuvir (1 μM), (c) Lamivudine (1 μM), (d) Ribavirin (400 μM), and (e) Mizoribine (100 μM). Subsequently, the thus-treated 2D organoid was infected with human norovirus (the norovirus strain GII.4), and the proliferation inhibition effect was determined (FIG. 6). The test was repeatedly performed three times. Error bars denote SEMs.

Where [3] appears, read: GII.4, groups of 1-day treatment and 2-day treatment with 2fp-fucose.

Take `CC(=O)OC1O[C@@H](C)[C@@H](OC(C)=O)[C@@H](OC(C)=O)[C@@H]1F` (stereo partly drawn) [2fp-fucose, (3S,4R,5R,6S)-3-fluoro-6-methyltetrahydro-2H-pyran-2,4,5-triyl triacetate]: the “VLP binding amount on the surface of 2D organoid” value in the assay on VLP of norovirus GII. 4 was “decrease in a concentration-dependent manner”. Further, in assay [1], the “concentration of complete viral proliferation inhibition” value was at least 40 µM. In addition, in assay [2] (GII.4 strain, 3 days treatment before infection), the “concentration of slight viral proliferation inhibition” value was found to be 40 µM. Further, in assay [2] (GII.4 strain, 3 days treatment before infection, days 3 and 6 after infection), the “concentration of complete viral proliferation inhibition” value is at least 200 µM. Further, the “proliferation of human norovirus” value in assay [2] (GII.4, 4-day treatment, 1,000 μM) is “slight proliferation of human norovirus was observed”. Moreover, the “viral RNA titer from day 0 to day 7 (proliferation inhibition effect)” value in assay [2] (GII.4, agent 200 μM, 3 days treatment before infection) was “no substantial increase in viral RNA titer was observed”. Moreover, the “concentration at which the proliferation inhibition effect was observed” value in assay [2] (GII.4, group of 3-day treatment, certain range of variation in effectiveness) came to 200 µM. Further, the “concentration at which the proliferation inhibition effect was initially observed” value in assay [2] (GII.4, group of 4-day treatment) was found to be 8 µM. Moreover, in assay [2] (setting [3]), the proliferation inhibition effect result is reported as “no proliferation inhibition effect” and the “proliferation of human norovirus 3 days after inoculation” value is given as at least 100 fold. The “concentration giving the highest proliferation inhibition effect” value in assay [2] (GII.4, treatment for 3 to 4 days) is 200 µM.

(Values after patent US20240390404A1, “ANTI-HUMAN NOROVIRUS AGENT” (KEIO UNIVERSITY, priority 2018, published 2024).)
